target: T1, human liver glycogen phosphorylase a (HLGPa) (Homo sapiens, UniProt P06737); experiment: Human liver glycogen phosphorylase a enzymatic activity assay (coupled, fluorescent resorufin readout, with and without 10 mM glucose); assay type: biochemical; conditions: human liver glycogen phosphorylase a; table does not say whether with or without 10 mM glucose
T1 construct: creating a full-length cDNA fused at the 5′ end to codons for methionine-glycine-alanine-histidine; 6xHis tag (leader Met-Gly-Ala-His6-Gly-Gly) (N); made in house; host or cells: E. coli (bacterial expression plasmid pTXK1007LTev)
T1 sequence (P06737 2-847 limits assumed): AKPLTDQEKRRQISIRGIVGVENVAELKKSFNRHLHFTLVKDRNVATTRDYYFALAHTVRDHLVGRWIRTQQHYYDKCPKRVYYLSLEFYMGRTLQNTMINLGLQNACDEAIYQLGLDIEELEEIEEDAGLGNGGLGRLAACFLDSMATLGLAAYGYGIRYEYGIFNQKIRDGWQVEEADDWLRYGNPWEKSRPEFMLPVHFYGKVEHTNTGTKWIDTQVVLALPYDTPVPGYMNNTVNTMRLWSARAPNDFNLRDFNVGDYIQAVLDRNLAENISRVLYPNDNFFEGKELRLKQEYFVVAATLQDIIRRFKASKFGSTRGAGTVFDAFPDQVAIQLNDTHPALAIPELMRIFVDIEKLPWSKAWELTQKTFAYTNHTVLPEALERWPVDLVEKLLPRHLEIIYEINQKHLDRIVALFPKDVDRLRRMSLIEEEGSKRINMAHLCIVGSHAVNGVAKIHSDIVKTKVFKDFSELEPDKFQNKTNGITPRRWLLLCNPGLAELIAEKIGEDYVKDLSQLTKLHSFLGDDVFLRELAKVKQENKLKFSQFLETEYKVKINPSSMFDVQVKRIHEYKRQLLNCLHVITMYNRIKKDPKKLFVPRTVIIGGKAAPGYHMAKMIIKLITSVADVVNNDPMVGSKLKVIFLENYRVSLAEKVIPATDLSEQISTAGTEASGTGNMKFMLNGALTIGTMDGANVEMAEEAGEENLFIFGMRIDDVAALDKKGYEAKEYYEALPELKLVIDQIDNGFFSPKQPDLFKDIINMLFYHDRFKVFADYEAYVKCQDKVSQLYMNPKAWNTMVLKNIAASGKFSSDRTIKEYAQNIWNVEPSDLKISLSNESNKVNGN

IC50 | SMILES
5080 nM | Cc1cc(C)c(NC(=O)Nc2cc3ccccc3cc2C(=O)N[C@@H](CC(=O)OC(C)(C)C)C(=O)OC(C)(C)C)c(C)c1 [Example 353, bis(1,1-dimethylethyl) N-{[3-({[(2,4,6-trimethylphenyl)amino]carbonyl}amino)-2-naphthalenyl]carbonyl}-L-aspartate]
61 nM | Cc1cc(C)c(NC(=O)Nc2cc3ccccc3cc2C(=O)N[C@@H](CC(=O)O)C(=O)O)c(C)c1 [Example 354, N-{[3-({[(2,4,6-trimethylphenyl)amino]carbonyl}amino)-2-naphthalenyl]carbonyl}-L-aspartic acid]
14 nM | O=C(O)C[C@H](NC(=O)c1cc2ccccc2cc1NC(=O)Nc1c(Cl)cc(OC(F)(F)F)cc1Cl)C(=O)O [Example 355, N-[(3-{[({2,6-dichloro-4-[(trifluoromethyl)oxy]phenyl}amino)carbonyl]amino}-2-naphthalenyl)carbonyl]-L-aspartic acid]
100 nM | Cc1cc(C)c(NC(=O)Nc2cc3ccccc3cc2C(=O)N[C@H](CC(=O)O)C(=O)O)c(C)c1 [Example 356, N-{[3-({[(2,4,6-trimethylphenyl)amino]carbonyl}amino)-2-naphthalenyl]carbonyl}-D-aspartic acid]
2470 nM | Cc1cc(C)c(NC(=O)Nc2cc3ccccc3cc2C(=O)N2CCC[C@@H]2C(=O)O)c(C)c1 [Example 357, 1-{[3-({[(2,4,6-trimethylphenyl)amino]carbonyl}amino)-2-naphthalenyl]carbonyl}-D-proline]
6 nM | Cc1cc(C)c(NC(=O)Nc2cc3ccccc3cc2C(=O)N[C@H](C(=O)O)[C@H]2CCCC(O)C2)c(C)c1 (stereo partly drawn) [Example 359, (2S)-[(1S)-3-hydroxycyclohexyl]({[3-({[(2,4,6-trimethylphenyl)amino]carbonyl}amino)-2-naphthalenyl]carbonyl}amino)ethanoic acid]
11 nM | Cc1cc(C)c(NC(=O)Nc2cc3ccccc3cc2C(=O)N[C@H](C(=O)O)[C@H]2CCCC(OC(=O)C(F)(F)F)C2)c(C)c1 (stereo partly drawn) [Example 360, (2S)-{(1S)-3-[(trifluoroacetyl)oxy]cyclohexyl}({[3-({[(2,4,6-trimethylphenyl)amino]carbonyl}amino)-2-naphthalenyl]carbonyl}amino)ethanoic acid]
6070 nM | COc1ccc(-c2ccc(C(=O)N[C@@H](CC(=O)OC(C)(C)C)C(=O)OC(C)(C)C)c(NC(=O)Nc3c(C)cc(C)cc3C)c2)cc1 [Example 361, bis(1,1-dimethylethyl) N-{[4′-(methyloxy)-3-({[(2,4,6-trimethylphenyl)amino]carbonyl}amino)-4-biphenylyl]carbonyl}-L-aspartate]
6 nM | COc1ccc(-c2ccc(C(=O)N[C@@H](CC(=O)O)C(=O)O)c(NC(=O)Nc3c(C)cc(C)cc3C)c2)cc1 [Example 362, N-{[4′-(methyloxy)-3-({[(2,4,6-trimethylphenyl)amino]carbonyl}amino)-4-biphenylyl]carbonyl}-L-aspartic acid]
360 nM | CCOC(=O)C[C@H](NC(=O)c1cc2ccccc2cc1NC(=O)Nc1c(C)cc(C)cc1C)C(=O)O [Example 363, (2S)-4-(ethyloxy)-4-oxo-2-({[3-({[(2,4,6-trimethylphenyl)amino]carbonyl}amino)-2-naphthalenyl]carbonyl}amino)butanoic acid]
1280 nM | O=C(O)C[C@H](NC(=O)c1ccc(F)cc1NC(=O)Nc1c(Cl)cccc1Cl)C(=O)O [Example 364, N-{[2-({[(2,6-dichlorophenyl)amino]carbonyl}amino)-4-fluorophenyl]carbonyl}-L-aspartic acid]
1680 nM | Cc1cc(C)c(NC(=O)Nc2cc(F)ccc2C(=O)N[C@@H](CC(=O)O)C(=O)O)c(C)c1 [Example 365, N-{[4-fluoro-2-({[(2,4,6-trimethylphenyl)amino]carbonyl}amino)phenyl]carbonyl}-L-aspartic acid]
11100 nM | CCOC(=O)C[C@H](NC(=O)c1ccc(-c2ccc(OC)cc2)cc1NC(=O)Nc1c(C)cc(C)cc1C)C(=O)OCc1ccccc1 [Example 366, 4-ethyl 1-(phenylmethyl)N-{[4′-(methyloxy)-3-({[(2,4,6-trimethylphenyl)amino]carbonyl}amino)-4-biphenylyl]carbonyl}-L-aspartate]
640 nM | CCOC(=O)C[C@H](NC(=O)c1ccc(-c2ccc(OC)cc2)cc1NC(=O)Nc1c(C)cc(C)cc1C)C(=O)O [Example 367, (2S)-4-(ethyloxy)-2-({[4′-(methyloxy)-3-({[(2,4,6-trimethylphenyl)amino]carbonyl}amino)-4-biphenylyl]carbonyl}amino)-4-oxobutanoic acid]
5580 nM | CCOC(=O)C[C@H](NC(=O)c1ccc(-c2ccc(OC)cc2)cc1NC(=O)Nc1c(C)cc(Br)cc1C)C(=O)OCc1ccccc1 [Example 368, 4-ethyl 1-(phenylmethyl) N-{[3-({[(4-bromo-2,6-dimethylphenyl)amino]carbonyl}amino)-4′-(methyloxy)-4-biphenylyl]carbonyl}-L-aspartate]
94 nM | CCCc1cc(C)c(NC(=O)Nc2cc(-c3ccc(OC)cc3)ccc2C(=O)N[C@@H](CC(=O)OCC)C(=O)O)c(C)c1 [Example 369, (2S)-2-({[3-({[(2,6-dimethyl-4-propylphenyl)amino]carbonyl}amino)-4′-(methyloxy)-4-biphenylyl]carbonyl}amino)-4-(ethyloxy)-4-oxobutanoic acid]
2 nM | CCCc1cc(C)c(NC(=O)Nc2cc(-c3ccc(OC)cc3)ccc2C(=O)N[C@@H](CC(=O)O)C(=O)O)c(C)c1 [Example 370, N-{[3-({[(2,6-dimethyl-4-propylphenyl)amino]carbonyl}amino)-4′-(methyloxy)-4-biphenylyl]carbonyl}-L-aspartic acid]
13500 nM | COC(=O)[C@H](CC(=O)OC(C)(C)C)NC(=O)c1ccc(-c2ccc(OC)cc2)cc1NC(=O)Nc1c(C)cc(C)cc1C [Example 371, 4-(1,1-dimethylethyl) 1-methyl N-{[4′-(methyloxy)-3-({[(2,4,6-trimethylphenyl)amino]carbonyl}amino)-4-biphenylyl]carbonyl}-L-aspartate]
990 nM | COC(=O)[C@H](CC(=O)O)NC(=O)c1ccc(-c2ccc(OC)cc2)cc1NC(=O)Nc1c(C)cc(C)cc1C [Example 372, (3S)-4-(methyloxy)-3-({[4′-(methyloxy)-3-({[(2,4,6-trimethylphenyl)amino]carbonyl}amino)-4-biphenylyl]carbonyl}amino)-4-oxobutanoic acid]
5 nM | Cc1cc(C)c(NC(=O)Nc2cc(-c3ccc(F)c(F)c3)ccc2C(=O)N[C@H](C(=O)O)[C@@H](C)OC(C)(C)C)c(C)c1 [Example 373, N-{[3′,4′-difluoro-3-({[(2,4,6-trimethylphenyl)amino]carbonyl}amino)-4-biphenylyl]carbonyl}-O-(1,1-dimethylethyl)-L-threonine]
820 nM | CCOC(=O)C[C@H](NC(=O)c1ccc(-c2ccc(F)c(F)c2)cc1NC(=O)Nc1c(C)cc(C)cc1C)C(=O)O [Example 374, (2S)-2-({[3′,4′-difluoro-3-({[(2,4,6-trimethylphenyl)amino]carbonyl}amino)-4-biphenylyl]carbonyl}amino)-4-(ethyloxy)-4-oxobutanoic acid]
43 nM | Cc1cc(C)c(NC(=O)Nc2cc(-c3ccc(F)c(F)c3)ccc2C(=O)N[C@@H](CC(=O)O)C(=O)O)c(C)c1 [Example 375, N-{[3′,4′-difluoro-3-({[(2,4,6-trimethylphenyl)amino]carbonyl}amino)-4-biphenylyl]carbonyl}-L-aspartic acid]
110 nM | Cc1cc(C)c(NC(=O)Nc2cc(-c3ccc(F)c(F)c3)ccc2C(=O)N[C@H](CC(=O)O)C(=O)O)c(C)c1 [Example 376, N-{[3′,4′-difluoro-3-({[(2,4,6-trimethylphenyl)amino]carbonyl}amino)-4-biphenylyl]carbonyl}-D-aspartic acid]
9130 nM | COC(=O)[C@H](CC(N)=O)NC(=O)c1ccc(-c2ccc(OC)cc2)cc1NC(=O)Nc1c(C)cc(C)cc1C [Example 377, methyl N^2-{[4′-(methyloxy)-3-({[(2,4,6-trimethylphenyl)amino]carbonyl}amino)-4-biphenylyl]carbonyl}-L-asparaginate]
100 nM | COc1ccc(-c2ccc(C(=O)N[C@@H](CC(N)=O)C(=O)O)c(NC(=O)Nc3c(C)cc(C)cc3C)c2)cc1 [Example 378, N^2-{[4′-(methyloxy)-3-({[(2,4,6-trimethylphenyl)amino]carbonyl}amino)-4-biphenylyl]carbonyl}-L-asparagine]
84 nM | Cc1cc(C)c(NC(=O)Nc2cc(-c3ccc(F)c(F)c3)ccc2C(=O)N[C@@H](CCC(=O)O)C(=O)O)c(C)c1 [Example 379, N-{[3′,4′-difluoro-3-({[(2,4,6-trimethylphenyl)amino]carbonyl}amino)-4-biphenylyl]carbonyl}-L-glutamic acid]

Source: patent US20070249670A1, “Glycogen Phosphorylase Inhibitor Compounds and Pharmaceutical Compositions Thereof” (SMITHKLINE BEECHAM CORPORATION, priority 2004, published 2007)
